Reference: patent US20160355483A1, “COMPOUND BINDING TO PPARG BUT NOT ACTING AS PROMOTER AND PHARMACEUTICAL COMPOSITION FOR TREATING PPARG-RELATED DISEASES CONTAINING SAME AS ACTIVE INGREDIENT” (Hyundai Pharm Co., Ltd., priority 2014, published 2016)
“Also recorded” adds a separate entry of the source.

Legend:
[1] = molecular target: T1, PPARG (peroxisome proliferator activated receptor-gamma), GST-PPARG-LBD (Homo sapiens, UniProt P37231); experiment: LanthaScreen TR-FRET PPARG Competitive Binding Assay; parameters: key: “+” indicates the degree of the binding activity, and as the number of “+” increases, the binding activity is stronger; ++: “+” indicates the degree of the binding activity, and as the number of “+” increases, the binding activity is stronger; +++: “+” indicates the degree of the binding activity, and as the number of “+” increases, the binding activity is stronger; ++++: “+” indicates the degree of the binding activity, and as the number of “+” increases, the binding activity is stronger; conditions: degree of binding activity
T1 construct: 15 μL of 5 nM GST-PPARG-LBD and 5 nM Tb-GST-antibody were added; purchased Invitrogen PV4894
T1 sequence (P37231 238-503 limits assumed): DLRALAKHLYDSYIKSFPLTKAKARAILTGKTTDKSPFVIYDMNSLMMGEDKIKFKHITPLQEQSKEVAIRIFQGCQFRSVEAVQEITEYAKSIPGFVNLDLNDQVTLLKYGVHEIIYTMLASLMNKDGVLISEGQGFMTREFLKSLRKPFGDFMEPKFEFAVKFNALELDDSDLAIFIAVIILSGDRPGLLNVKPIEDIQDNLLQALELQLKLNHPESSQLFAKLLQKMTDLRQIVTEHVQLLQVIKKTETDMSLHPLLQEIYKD
How it was run: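 Ratio of 518 nm to 488 nm time-resolved emission after a 1 h room-temperature incubation, in competition format with GST-PPARG ligand-binding domain. Values are expressed as 100% minus compound-to-vehicle ratio and related to rosiglitazone binding.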

[2] = molecular target: T2, CYP 2C19 (Homo sapiens, UniProt P33261); experiment: CYP (cytochrome P450)-suppressing effect, BD GENTEST kit; format: in vitro ADME
T2 construct: purchased BD GENTEST 459400
Experimental: (§1) To evaluate the CYP (cytochrome P450)-suppressing activity of the compounds prepared in the examples of the invention, the following experiment was performed.
(§2) The analysis of CYP1A2, 2C19, and 3A4 suppressing activity was performed by using a BD GENTEST (459100, 459400, and 459500) kit, and the analysis of CYP 2C9- and 2D6-suppressing activity was performed by using an Invitrogen (P2861 and P2862) kit.
(§3) When the BD GENTEST kit was used, the compounds of the present invention were diluted in acetonitrile at the final concentration of 50×. The NADPH-Cofactor mix was prepared by diluting the Cofactor, G6PDH, and control protein provided by the kit in DW according to the instructed concentration. 4 μL of the compound of the example (50×) was mixed with 96 μL of NADPH-Cofactor mix in a 96-well plate, followed by pre-incubation in a 37° C. incubator for 10 minutes.
(§4) The enzyme/substrate mixture was diluted in the buffer (0.5 M potassium phosphate, pH 7.4) provided by the kit according to the instructed concentration. Each CYP450 enzyme substrate was diluted in DW at a desired concentration respectively according to the corresponding types of CYP450. 100 μL of the enzyme/substrate mixture was loaded in the plate when the pre-incubation had been completed, followed by reaction in a 37° C. incubator for 15 minutes (1A2) and 30 minutes (3A4 and 2C19). Upon completion of the reaction, the mixture was transferred to a white plate, and the fluorescent wavelength was measured with a microplate reader (1A2, 2C19 excitation 410 nm, emission 460 nm; 3A4, excitation 409 nm, emission 530 nm).
(§5) The test results were calculated by the following formula:
(§6) (1−(fluorescence value of the test material/fluorescence value of the vehicle))×100%.

[3] = molecular target: T3, CYP 3A4 (Homo sapiens, UniProt P08684); experiment: as above; format: in vitro ADME
T3 construct: purchased BD GENTEST 459500
Experimental: as §1, §2, §3, §4, §5, §6

[4] = molecular target: T4, CYP1A2 (Homo sapiens, UniProt P05177); experiment: as above; format: in vitro ADME
T4 construct: purchased BD GENTEST 459100
T4 sequence (P05177 1-516): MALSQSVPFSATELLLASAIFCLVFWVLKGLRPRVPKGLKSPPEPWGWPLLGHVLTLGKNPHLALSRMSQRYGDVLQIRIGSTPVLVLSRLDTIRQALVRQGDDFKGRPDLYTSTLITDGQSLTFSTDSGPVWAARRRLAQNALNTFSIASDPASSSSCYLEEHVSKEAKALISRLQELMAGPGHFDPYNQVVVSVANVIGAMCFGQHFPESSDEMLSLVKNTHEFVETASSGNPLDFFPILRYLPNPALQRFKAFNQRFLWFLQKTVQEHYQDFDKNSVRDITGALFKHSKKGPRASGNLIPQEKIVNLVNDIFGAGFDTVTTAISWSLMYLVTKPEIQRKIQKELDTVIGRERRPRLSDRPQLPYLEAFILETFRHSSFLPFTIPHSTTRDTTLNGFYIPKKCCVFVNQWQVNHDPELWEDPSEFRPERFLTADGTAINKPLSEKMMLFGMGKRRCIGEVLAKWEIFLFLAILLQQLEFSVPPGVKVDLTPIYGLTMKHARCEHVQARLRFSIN
Experimental: as §1, §2, §3, §4, §5, §6

[5] = molecular target: T5, CYP 2C9 (Homo sapiens, UniProt P11712); experiment: CYP (cytochrome P450)-suppressing effect, Invitrogen Vivid kit; format: in vitro ADME
T5 construct: purchased Invitrogen P2861
Experimental: as §1, §2
(§7) When the Invitrogen kit was used, the compounds of the present invention were diluted in Vivid CYP450 reaction buffer (1×) at the final concentration of 2.5×. The P450 BACULOSOMES sample and Regeneration system (100×) were diluted in Vivid CYP450 reaction buffer (1×) at different proper concentrations. 80 μL of the compound of the invention (2.5×) and […] of the diluted P450 BACULOSOMES sample mixture were mixed in a U-bottom 96-well plate, followed by pre-incubation for 10 minutes. Vivid CYP450 Substrate and NADP+ (100×) were diluted in Vivid CYP450 reaction buffer (1×) at a desired concentration, respectively, according to their corresponding types of CYP450 and substrates. 20 μL of Substrate-NADP+ mix was loaded in the plate when the pre-incubation had been completed, followed by reaction for 1 hour. Upon completion of the reaction, the reaction mixture was transferred in a white plate and fluorescent wavelength was measured with a microplate reader (2C9 excitation 415 nm, emission 460 nm, 2D6 excitation 400 nm, emission 502 nm).
as §5, §6

[6] = molecular target: T6, CYP 2D6 (Homo sapiens, UniProt P10635); experiment: as above; format: in vitro ADME
T6 construct: purchased Invitrogen P2862
Experimental: as §1, §2, §7, §5, §6

[7] = molecular target: T7, HERG (Human Ether-a-go-go-Related Gene) channel (Homo sapiens, UniProt Q12809); experiment: Evaluation of cardiotoxicity, patch-clamp on HEK293 cells expressing HERG channel; format: cell-based; conditions: HERG peak tail current
T7 construct: expressed in transfected cells; host or cells: HEK293
Experimental: HEK293 cells expressing HERG (Human Ether-a-go-go-Related Gene) channel safely were cultured in MEM (Minimum Essential Medium) supplemented with 10% fetal bovine serum (FBS), 1 mM sodium pyruvate, 0.1 mM non-essential amino acid solution, 100 units/ml penicillin-streptomycin, 100 μg/ml streptomycin sulfate and 100 μg/ml zeocin under the condition of air:CO2=95:5. When the cells were grown to 60-80% confluency, the cells were loaded in the medium supplemented with 0.25% trypsin and 0.02% EDTA (ethylenediaminetertraacetic acid) for 3 minutes. The cells were then washed with a fresh medium and then dispensed on a new plastic culture dish. For the electrophysiological record, the cells were seeded on a glass cover slip of 5 mm in diameter, followed by incubation in a 24-well plate for 5-24 hours. Then, the cells were transferred into the recording chamber.
The current value of all the cells was measured by the conventional patch-clamp technique or Port-a-Patch (Nanion, Germany) semiautomatic technique. The pH of the external bath solution containing 136 mM NaCl, 5.4 mM KCl, 1.8 mM CaCl2, 1 mM MgCl2, 10 mM glucose, and 10 mM HEPES (4-(2-hydroxyethyl)-1-piperazineethanesulfonic acid) was adjusted to 7.4 using NaOH. The pH of the intracellular pipette solution containing 130 mM KCl, 1 mM MgCl2, 10 mM EGTA (ethylene glycol tetraacetic acid), 5 mM Mg-ATP, and mM HEPES was adjusted to 7.2 using KOH.
In the conventional patch-clamp technique, the patch pipette was pulled by a PP-83 pipette puller (Narishige, Tokyo, Japan), so that it had 2-4 MΩ of resistance in the external bath solution. The ionic current was recorded by using EPC7 pulse amplifier (HEKA electronic, Germany). The voltage-clamp amplification was regulated using the pClamp computer program (Axon Instruments, USA), and the obtained data were analyzed. During the recording, the solution above was continually spread on HEK293 cells in the chamber. For the recording, the Port-a-Patch (Nanion, Germany) semiautomatic patch system was used, and the amplifier used herein was EPC10.
The membrane potential was maintained at −80 mV, which was changed to +20 mV for 4 seconds, then changed to −50 mV for 6 seconds and then maintained again at −80 mV. The changes were made every 25 seconds.
To obtain the concentration-reaction curve in the presence of the drug, dose-dependent inhibition was entered into the Hill formula represented by mathematical formula 1 below.
In mathematical formula 1, Idrug indicates the peak tail current in the presence of a drug, Icontrol indicates the maximum peak tail current in the absence of a drug, D indicates the concentration of a drug, h indicates Hill constant, and IC50 indicates the concentration when the half-maximum peak tail current was suppressed.

[8] = test system: CYP isozymes 1A2, 2C9, 2C19, and 2D6; experiment: CYP suppression compared with comparative examples (Table 3); format: in vitro ADME; conditions: result in words
Experimental: as §1, §2, §7, §3, §4, §5, §6

[9] = test system: bone cells; conditions: cell culture test; cited from earlier work

T3 sequence (P08684 whole entry): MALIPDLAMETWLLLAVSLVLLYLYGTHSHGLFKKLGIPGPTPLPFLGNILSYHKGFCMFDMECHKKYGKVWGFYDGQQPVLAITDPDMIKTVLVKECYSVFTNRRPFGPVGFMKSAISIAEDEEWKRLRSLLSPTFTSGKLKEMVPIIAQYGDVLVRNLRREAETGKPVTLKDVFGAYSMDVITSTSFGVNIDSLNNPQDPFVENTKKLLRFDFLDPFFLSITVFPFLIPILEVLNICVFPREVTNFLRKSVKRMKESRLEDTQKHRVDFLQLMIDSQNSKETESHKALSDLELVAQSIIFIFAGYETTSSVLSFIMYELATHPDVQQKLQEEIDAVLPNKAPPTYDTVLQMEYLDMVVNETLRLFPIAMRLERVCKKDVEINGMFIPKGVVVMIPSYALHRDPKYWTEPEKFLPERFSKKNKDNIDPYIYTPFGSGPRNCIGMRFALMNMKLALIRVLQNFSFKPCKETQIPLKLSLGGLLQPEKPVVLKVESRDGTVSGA
T7 sequence (Q12809 whole entry): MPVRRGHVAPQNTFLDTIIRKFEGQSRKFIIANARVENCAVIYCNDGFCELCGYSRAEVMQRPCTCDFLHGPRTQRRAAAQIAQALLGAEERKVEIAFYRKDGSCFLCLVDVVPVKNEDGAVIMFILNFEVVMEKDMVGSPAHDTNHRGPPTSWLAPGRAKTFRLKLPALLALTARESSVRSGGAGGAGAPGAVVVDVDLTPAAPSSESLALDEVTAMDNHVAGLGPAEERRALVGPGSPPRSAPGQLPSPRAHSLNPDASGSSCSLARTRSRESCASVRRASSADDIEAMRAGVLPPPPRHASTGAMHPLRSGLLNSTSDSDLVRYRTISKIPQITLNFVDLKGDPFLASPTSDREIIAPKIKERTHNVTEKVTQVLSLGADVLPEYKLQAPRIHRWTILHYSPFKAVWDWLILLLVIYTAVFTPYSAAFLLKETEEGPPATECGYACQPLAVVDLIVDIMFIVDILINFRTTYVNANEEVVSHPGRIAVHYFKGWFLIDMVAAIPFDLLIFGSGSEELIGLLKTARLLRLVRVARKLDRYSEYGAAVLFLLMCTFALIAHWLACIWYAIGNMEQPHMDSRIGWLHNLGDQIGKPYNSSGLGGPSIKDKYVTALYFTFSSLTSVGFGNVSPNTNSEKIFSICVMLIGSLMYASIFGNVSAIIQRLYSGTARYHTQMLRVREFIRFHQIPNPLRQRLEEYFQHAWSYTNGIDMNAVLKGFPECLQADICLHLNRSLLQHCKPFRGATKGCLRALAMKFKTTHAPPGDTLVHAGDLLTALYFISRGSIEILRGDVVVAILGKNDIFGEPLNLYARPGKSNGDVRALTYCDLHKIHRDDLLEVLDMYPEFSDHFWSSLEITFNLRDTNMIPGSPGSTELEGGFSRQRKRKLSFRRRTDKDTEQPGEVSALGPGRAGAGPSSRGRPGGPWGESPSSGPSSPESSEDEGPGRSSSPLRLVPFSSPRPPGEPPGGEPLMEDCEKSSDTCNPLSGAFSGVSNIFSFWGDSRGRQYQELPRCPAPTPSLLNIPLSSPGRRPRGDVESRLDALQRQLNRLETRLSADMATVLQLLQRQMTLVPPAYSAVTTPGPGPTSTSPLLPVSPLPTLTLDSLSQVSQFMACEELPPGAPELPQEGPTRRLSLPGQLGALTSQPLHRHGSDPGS
T2 sequence (P33261 whole entry): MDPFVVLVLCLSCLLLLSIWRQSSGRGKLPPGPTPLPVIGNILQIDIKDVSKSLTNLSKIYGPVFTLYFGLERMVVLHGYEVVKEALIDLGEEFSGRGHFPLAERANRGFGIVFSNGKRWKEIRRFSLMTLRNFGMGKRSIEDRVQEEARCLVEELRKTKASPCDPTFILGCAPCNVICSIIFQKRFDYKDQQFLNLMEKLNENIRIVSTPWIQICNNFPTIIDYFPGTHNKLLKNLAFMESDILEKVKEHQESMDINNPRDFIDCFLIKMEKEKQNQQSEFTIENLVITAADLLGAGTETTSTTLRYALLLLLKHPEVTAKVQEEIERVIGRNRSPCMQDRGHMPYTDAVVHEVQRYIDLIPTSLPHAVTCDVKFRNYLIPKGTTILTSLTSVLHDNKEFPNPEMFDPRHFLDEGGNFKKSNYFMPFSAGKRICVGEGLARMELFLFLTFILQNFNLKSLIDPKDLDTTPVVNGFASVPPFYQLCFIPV
T5 sequence (P11712 whole entry): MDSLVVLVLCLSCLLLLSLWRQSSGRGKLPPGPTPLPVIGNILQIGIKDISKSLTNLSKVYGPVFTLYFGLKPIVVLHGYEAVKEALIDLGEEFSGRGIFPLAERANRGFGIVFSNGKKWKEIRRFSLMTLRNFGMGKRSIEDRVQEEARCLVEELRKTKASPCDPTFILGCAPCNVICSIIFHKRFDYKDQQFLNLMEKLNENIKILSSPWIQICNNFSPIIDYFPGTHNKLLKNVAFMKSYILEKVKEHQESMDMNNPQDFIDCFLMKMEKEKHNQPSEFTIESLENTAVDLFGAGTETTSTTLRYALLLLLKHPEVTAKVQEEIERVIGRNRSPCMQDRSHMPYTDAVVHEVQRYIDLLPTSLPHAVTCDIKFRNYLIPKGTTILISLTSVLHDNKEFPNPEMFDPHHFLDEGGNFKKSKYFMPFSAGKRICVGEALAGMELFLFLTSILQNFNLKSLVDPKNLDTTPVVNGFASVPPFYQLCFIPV
T6 sequence (P10635 whole entry): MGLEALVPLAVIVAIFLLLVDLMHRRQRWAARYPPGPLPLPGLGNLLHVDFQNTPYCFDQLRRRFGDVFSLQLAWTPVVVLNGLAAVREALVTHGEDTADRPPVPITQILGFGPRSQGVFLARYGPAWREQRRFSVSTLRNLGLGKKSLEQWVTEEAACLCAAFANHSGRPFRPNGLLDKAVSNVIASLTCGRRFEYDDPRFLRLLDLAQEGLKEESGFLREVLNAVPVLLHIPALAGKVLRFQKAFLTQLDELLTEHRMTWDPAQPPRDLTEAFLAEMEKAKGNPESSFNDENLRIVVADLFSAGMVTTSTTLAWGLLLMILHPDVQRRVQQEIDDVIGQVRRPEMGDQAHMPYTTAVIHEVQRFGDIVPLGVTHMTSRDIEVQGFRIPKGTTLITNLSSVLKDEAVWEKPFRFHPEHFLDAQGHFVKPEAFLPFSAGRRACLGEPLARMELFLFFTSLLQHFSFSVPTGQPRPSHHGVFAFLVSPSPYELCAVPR

Binding assay (1 μLM) [1] | CYP(10 μL, %) 2C19 [2] | CYP(10 μL, %) 3A4 [3] | CYP(10 μL, %) 1A2 [4] | CYP(10 μL, %) 2C9 [5] | CYP(10 μL, %) 2D6 [6] | Structure (SMILES) | IC50 [7] | suppression of CYP isozymes 1A2, 2C9, 2C19, and 2D6 compared with SR1664 and SR1824 [8] | fat generation in bone cells [9]
++++ | 85.71% | 54.62% | 100.73% | 55.36% | 94.15% | Cc1ccc([C@H](C)NC(=O)c2ccc3c(c2)CCCN3Cc2ccc(-c3ccccc3C(=O)[O-])cc2)cc1F.[Na+] [Example 56, sodium (S)-4′-((6-((1-(3-fluoro-4-methylphenyl)ethyl)carbamoyl)-3,4-dihydroquinoline-1(2H)-yl)methyl)-[1,1′-biphenyl]-2-carboxylate] | 72.6 µM | less than the compounds of the comparative examples; also recorded: less strongly than the compounds of the Comparative Examples | –
+++ | 54.84% | 55.88% | 94.17% | 52.84% | 86.92% | C[C@H](NC(=O)c1ccc2c(c1)CCCN2Cc1cccc(-c2ccccc2C(N)=O)c1F)c1ccc([N+](=O)[O-])cc1 [Example 131, (S)-1-((2′-carbamoyl-2-fluoro-[1,1′-biphenyl]-3-yl)methyl)-N-(1-(4-nitrophenyl)ethyl)-1,2,3,4-tetrahydroquinoline-6-carboxamide] | – | less than the compounds of the comparative examples; also recorded: less strongly than the compounds of the Comparative Examples | –
+++ | 53.50% | 60.95% | 94.00% | 63.24% | 80.63% | C[C@H](NC(=O)c1ccc2c(c1)CCCN2Cc1cc(-c2ccccc2C(N)=O)ccc1F)c1ccc([N+](=O)[O-])cc1 [Example 139, (S)-1-((2′-carbamoyl-4-fluoro-[1,1′-biphenyl]-3-yl)methyl)-N-(1-(4-nitrophenyl)ethyl)-1,2,3,4-tetrahydroquinoline-6-carboxamide] | – | less than the compounds of the comparative examples; also recorded: less strongly than the compounds of the Comparative Examples | –
+ | – | – | – | – | – | C[C@H](NC(=O)c1ccc2c(c1)CCCN2Cc1ccccc1-c1ccc(C(=O)O)cc1)c1ccc([N+](=O)[O-])cc1 [Example 155, (S)-2′-((6-((1-(4-nitrophenyl)ethyl)carbamoyl)-3,4-dihydroquinoline-1(2H)-yl)methyl)-[1,1′-biphenyl]-4-carboxylic acid] | 73.6 µM | – | –
+ | – | – | – | – | – | C[C@H](NC(=O)c1ccc2c(c1)CCCN2Cc1ccccc1-c1ccc(C(=O)O)cc1)c1ccc2ccccc2c1 [Example 156, (S)-2′-((6-((1-(naphthalene-2-yl)ethyl)carbamoyl)-3,4-dihydroquinoline-1(2H)-yl)methyl)-[1,1′-biphenyl]-4-carboxylic acid] | 55.2 µM | – | –
++ | – | – | – | – | – | C[C@H](NC(=O)c1ccc2c(c1)CCCN2Cc1ccccc1-c1ccc(C(=O)O)cc1)c1ccc(C#N)cc1 [Example 157, (S)-2′-((6-((1-(4-cyanophenyl)ethyl)carbamoyl)-3,4-dihydroquinoline-1(2H)-yl)methyl)-[1,1′-biphenyl]-4-carboxylic acid] | 42.7 µM | – | –
– | – | – | – | – | – | Cc1c(C)n(Cc2ccc(-c3ccccc3C(=O)O)cc2)c2ccc(C(=O)N[C@@H](C)c3ccc([N+](=O)[O-])cc3)cc12 [SR1664] | – | – | does not induce problems such as fat generation in bone cells
